We go through 7 compounds from article PMC6274457, “Characterization of a New Flavone and Tyrosinase Inhibition Constituents from the Twigs of Morus alba L” (Molecules, 2016).

pIC50: −log10 of the molar value.

One may read the pIC50 as the IC50 on a negative log10 scale, so that one unit is a factor of ten.

The first assay deals with T1, Mushroom tyrosinase (Agaricus bisporus, UniProt C7FF04).
T1 sequence (G1K3P4 entry or part of it): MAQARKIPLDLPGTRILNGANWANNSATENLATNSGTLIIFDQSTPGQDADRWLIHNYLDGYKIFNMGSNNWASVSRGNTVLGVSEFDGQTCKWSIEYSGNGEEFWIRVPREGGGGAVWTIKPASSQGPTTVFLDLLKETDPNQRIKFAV
T1 sequence (C7FF04 1-392): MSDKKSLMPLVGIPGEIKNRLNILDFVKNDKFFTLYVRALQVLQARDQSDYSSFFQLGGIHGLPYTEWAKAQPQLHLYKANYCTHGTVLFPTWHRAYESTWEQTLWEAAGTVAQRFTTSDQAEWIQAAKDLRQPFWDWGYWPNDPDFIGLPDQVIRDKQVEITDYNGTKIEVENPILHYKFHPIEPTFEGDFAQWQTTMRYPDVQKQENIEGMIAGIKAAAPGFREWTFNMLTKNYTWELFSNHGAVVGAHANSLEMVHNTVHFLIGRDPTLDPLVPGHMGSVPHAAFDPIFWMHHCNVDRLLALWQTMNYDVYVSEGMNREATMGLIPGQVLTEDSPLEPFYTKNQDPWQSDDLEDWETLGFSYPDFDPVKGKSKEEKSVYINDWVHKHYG
Test: not given
To be noted: single resorcinol derivatives, weak activity; read-out: Tyrosinase inhibitory activity IC50; cited from earlier work. Set-up: method as in PMID 26616992.
For `CC(=O)c1ccc(O)cc1O` [2,4-dihydroxyacetophenone], the negative logarithm of the IC50 (pIC50) is under 3.70.

The next assay addresses T1, Mushroom tyrosinase. In words: Mushroom tyrosinase inhibitory assay (spectrophotometric, L-tyrosine substrate). It counts as biochemical. To be noted: qualitative statement; comparison with positive control kojic acid where stated. The procedure:
The compounds were firstly dissolved in DMSO at a concentration of 1.0 mg/mL and then diluted to different concentrations with DMSO. […] The reaction mixtures (3.0 mL) were vortexed and the initial absorbance at 492 nm was measured. After incubation for 20 min at 37 °C, the final absorbance at the same wavelength was taken. […] B1 is the absorbance at 492 nm of test sample at 0 min, B2 is the absorbance at 492 nm of test sample at 20 min.
On to `Oc1cc(O)cc(-c2cc3ccc(O)cc3o2)c1` [Moracin M (14), moracin M], for which the “Mushroom tyrosinase inhibitory activity, result in words” value (shortened to “Mushroom tyrosinase inhibitory activity”) is “much stronger”.

As to `C=C(C)C(=O)Cc1c(-c2ccc(O)cc2O)oc2c3c(cc(O)c2c1=O)OC(C)(C)C=C3` [Morusone (1), 2-(2,4-dihydroxyphenyl)-5-hydroxy-8,8-dimethyl-3-(3-methyl-2-oxo-but-3-enyl)-8H-pyrano[2,3-f]chromen-4-one], the “Mushroom tyrosinase inhibitory activity” value is recorded as “weak”.

As to `CC(C)=CCc1c(O)ccc(C(=O)/C=C/c2ccc(O)cc2O)c1O` [Morachalcone A (4), morachalcone A], the “Mushroom tyrosinase inhibitory activity” value is on record as “much stronger”.

With `Oc1cc(O)cc(/C=C/c2ccc(O)cc2O)c1` [Oxyresveratrol (5), oxyresveratrol], the “Mushroom tyrosinase inhibitory activity” value was “much stronger”.

For the compound `O=C(/C=C/c1ccc(O)cc1O)c1ccc(O)cc1O` [2,4,2′,4′-Tetrahydroxychalcone (3), 2,4,2′,4′-Tetrahydroxychalcone], the “Mushroom tyrosinase inhibitory activity” value is “much stronger”.

Turning to `O=C1CC(c2ccc(O)cc2O)Oc2cc(O)cc(O)c21` (stereo not shown) [Steppogenin (2), steppogenin], the “Mushroom tyrosinase inhibitory activity” value is given as “much stronger”.
